# Where two headings read alike, the source gives them in different places.
# Columns and labels:
# Methanomicrobium mobile = experiment: Growth/methane production of methanogen cultures; type: cell-based; conditions: after 2 days, maintained over 12 days
# Method: (§1) The methanogens outlined in table 3 were grown in 5 mL of the respective culture medium at 37°C in 15-mL Hungate tubes sealed with butyl rubber septum and aluminum seals. The 8 mL gas phase was 80% H2/20% CO2 at 2 x 10^5 Pa pressure. In the case of M. stadtmanae and M. barkeri H2 and methanol (100 mM) was the energy source. Methanogens growth was followed by CH4 production using a flame ionization-detector GC (0.5 ml of gas from headspace, manual injection in the GC (HP Hewlett 5890, Packard Series II, Waldbronn, Germany) using a 1 mL Sample-Lock® syringe (Hamilton, Nevada, USA). The concentration of CH4 was determined using a standard curve generated by injecting different volumes of 99.9 % pure CH4 prior to and after the injection of samples. Three consecutive 5 mL batches of incubations were conducted. In each batch the following treatments were used in triplicate: (i) blanks, only media; (ii) controls, cultures in the absence of inhibitor; (iii) 3-NOP added to a final concentration of 0.5 µM, 5 µM, 50 µM, 100 µM, 250 µM and 500 µM. 3-NOP was added on day 2 after culture inoculation with 0.5 mL of an actively growing culture. The growth was measured over 12 days every 2 days coinciding with new pressurization of headspace to 2 bar with 80:20 H2:CO2 gas mixture. […] Table 3: Methanogens
# [1] = test system: Methanobrevibacter millerae; experiment: Growth/methane production of methanogen cultures; type: cell-based; conditions: after 2 days, maintained over 12 days
# Method: as §1
# Methanosarcina barkeri = experiment: Growth/methane production of methanogen cultures; type: cell-based; conditions: H2 and methanol (100 mM), after 2 days, maintained over 12 days
# Method: as §1
# [2] = test system: Methanosphaera stadtmanae; experiment: Growth/methane production of methanogen cultures; type: cell-based; conditions: H2 and methanol (100 mM), after 2 days, maintained over 12 days
# Method: as §1
# [3] = test system: Methanobacterium bryantii; experiment: Growth/methane production of methanogen cultures; type: cell-based; conditions: after 2 days, maintained over 12 days
# Method: as §1
# [4] = test system: Methanobrevibacter smithii; experiment: Growth/methane production of methanogen cultures; type: cell-based; conditions: after 2 days, maintained over 12 days
# Method: as §1
# [5] = test system: Methanothermobacter wolfeii; experiment: Growth/methane production of methanogen cultures; type: cell-based; conditions: after 2 days, maintained over 12 days
# Method: as §1
# MCR (MCR-I) [6] = molecular target: T1, MCR (MCR-I) (Methanothermobacter marburgensis, UniProt P11558+P11560+P11562); type: biochemical, M. marburgensis; conditions: 15 min at room temperature
# MCR (MCR-I) [7] = molecular target: T1, MCR (MCR-I); type: biochemical, M. marburgensis; conditions: for Methane reduction: 0.1 µM 3-NOP vs no inhibitor
# T1 sequence (P11558 2-550 limits assumed): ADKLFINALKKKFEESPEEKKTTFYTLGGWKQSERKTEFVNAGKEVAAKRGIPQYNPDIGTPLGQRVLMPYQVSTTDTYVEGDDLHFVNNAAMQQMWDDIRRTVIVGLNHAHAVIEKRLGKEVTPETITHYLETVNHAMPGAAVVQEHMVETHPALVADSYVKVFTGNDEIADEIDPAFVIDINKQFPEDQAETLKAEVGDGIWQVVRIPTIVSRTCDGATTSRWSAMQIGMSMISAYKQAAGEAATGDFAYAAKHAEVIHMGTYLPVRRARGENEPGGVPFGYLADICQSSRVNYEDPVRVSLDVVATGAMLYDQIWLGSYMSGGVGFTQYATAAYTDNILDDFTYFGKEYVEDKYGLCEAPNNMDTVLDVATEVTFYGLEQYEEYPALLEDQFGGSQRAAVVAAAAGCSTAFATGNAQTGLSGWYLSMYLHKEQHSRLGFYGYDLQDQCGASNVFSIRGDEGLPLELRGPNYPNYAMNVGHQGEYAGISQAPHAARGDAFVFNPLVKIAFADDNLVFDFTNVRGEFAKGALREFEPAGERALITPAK
# T1 sequence (P11560 2-443 limits assumed): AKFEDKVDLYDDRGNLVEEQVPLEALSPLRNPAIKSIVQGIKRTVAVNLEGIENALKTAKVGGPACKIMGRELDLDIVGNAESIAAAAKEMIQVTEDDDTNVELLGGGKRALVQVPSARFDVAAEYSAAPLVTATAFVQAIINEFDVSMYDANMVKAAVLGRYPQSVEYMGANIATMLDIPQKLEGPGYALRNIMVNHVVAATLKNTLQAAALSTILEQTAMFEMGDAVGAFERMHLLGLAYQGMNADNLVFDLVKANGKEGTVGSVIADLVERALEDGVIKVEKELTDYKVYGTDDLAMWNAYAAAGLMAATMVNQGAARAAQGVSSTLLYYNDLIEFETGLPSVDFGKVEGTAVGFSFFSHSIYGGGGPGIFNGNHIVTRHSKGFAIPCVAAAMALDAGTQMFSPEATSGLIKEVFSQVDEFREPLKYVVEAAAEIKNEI
# T1 sequence (P11562 2-249 limits assumed): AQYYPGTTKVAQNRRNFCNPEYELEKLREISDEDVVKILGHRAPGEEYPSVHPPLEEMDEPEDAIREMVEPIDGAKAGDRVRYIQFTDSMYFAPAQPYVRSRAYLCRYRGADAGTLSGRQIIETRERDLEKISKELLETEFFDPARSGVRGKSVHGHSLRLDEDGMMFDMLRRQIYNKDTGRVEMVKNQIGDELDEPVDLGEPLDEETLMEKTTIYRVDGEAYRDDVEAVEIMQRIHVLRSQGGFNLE
structure (smiles),measurement,setting,value
"O=[N+]([O-])OCCCO [3-NOP, 3-Nitrooxypropanol]",lowest concentration of 3-NOP able to significantly decrease the growth/ methane production (>50%),Methanomicrobium mobile,50 µM
same,lowest concentration of 3-NOP able to significantly decrease the growth/ methane production (>50%),[1],2.5 µM
same,lowest concentration of 3-NOP able to significantly decrease the growth/ methane production (>50%),Methanosarcina barkeri,50 µM
same,lowest concentration of 3-NOP able to significantly decrease the growth/ methane production (>50%),[2],5 µM
same,lowest concentration of 3-NOP able to significantly decrease the growth/ methane production (>50%),[3],1 µM
same,lowest concentration of 3-NOP able to significantly decrease the growth/ methane production (>50%),[4],2.5 µM
same,lowest concentration of 3-NOP able to significantly decrease the growth/ methane production (>50%),[5],< 1 µM
same,MCR activity was reduced,MCR (MCR-I) [6]; 10 µM of 3-NOP,50%
same,inhibition of the enzyme,MCR (MCR-I) [6]; > 30 µM of 3-NOP,almost complete inhibition
same,reduces the methane concentration and thus the MCR activity,MCR (MCR-I) [7]; 0.1 µM 3-NOP,about 50%
same,Methane reduction,MCR (MCR-I) [7]; 3min,-28%
same,Methane reduction,MCR (MCR-I) [7]; 6min,-38%
same,Methane reduction,MCR (MCR-I) [7]; 9min,-47%
same,Methane concentration,"MCR (MCR-I) [7]; 0.1 µM 3-NOP, 3min, no inhibitor 0.095",0.068 µM
same,Methane concentration,"MCR (MCR-I) [7]; 0.1 µM 3-NOP, 6min, no inhibitor 0.132",0.082 µM
same,Methane concentration,"MCR (MCR-I) [7]; 0.1 µM 3-NOP, 9min, no inhibitor 0.163",0.086 µM

# From patent publication EP3238720A1, “ANTI-METHANOGENIC COMPOSITIONS AND USES THEREOF” (DSM IP Assets B.V., priority 2016, dated 2017)
